Tests used:
[1] = Stability in animal lung tissue homogenate, skin tissue homogenate and aqueous humor; type: in vitro ADME
[2] = system: inflammatory cytokines (TNF-α); test: Anti-uveitis pharmacodynamic experiment (LPS model): inflammatory cytokines in aqueous humor (ELISA); type: in vivo, male SD rats; settings: values not given
Method: Pharmacological Example 5. Pharmacodynamic Experiment on Anti-Uveitis
Test samples: Compounds 23 and 26 were prepared as 5 mg/5 mL ophthalmic suspensions with reference to the formulation of Fluorometholone Eye Drops, and stored at room temperature protected from light until use.
Positive control drug: Fluorometholone Eye Drops (specification: 5 mL/5 mg; Santen Pharmaceutical (CHINA) Co., Ltd.; Lot No. : J20180068) was used as the positive control drug and stored at room temperature protected from light until use.
Fifty male SD rats underwent a one-week adaptive feeding period. The animals were randomly divided into 5 groups: Group 1 served as the blank control group, and Groups 2 to 5 were the model group, fluorometholone group, compound 23 group, and compound 26 group, respectively. Groups 2 to 5 were used to establish rat uveitis models by single subcutaneous injection of 1 mg/kg LPS (Salmonella; Sigma; Lot No. 0000164114) into the plantar tissue of the hindpaw. Salmonella endotoxin was dissolved in normal saline to prepare an injection solution at a concentration of 2 mg/mL, which was injected subcutaneously at 1 mg/kg into the plantar tissue of one paw of the rats. Group 1 was injected with an equal volume of normal saline.
After modeling, 40 µL of normal saline was administered to the eyes (bilateral) of the rats in the blank control group and model group, and 40 µL of the corresponding drugs were administered to the eyes (bilateral) of the […] in the compound 23 group, compound 26 group, and positive drug fluorometholone group, 3 times a day for 2 days. Table 8. Animal grouping and drug administration dosages
Thirty hours after modeling, aqueous humor was collected from both eyes of rats, and partial eyeball tissues of rats were collected. The level of the inflammatory cytokines (TNF-α) was detected using a rat ELISA assay kit.
Statistical analysis was performed using SPSS software. Measurement data were expressed as mean ± standard deviation. One-way ANOVA was used for intergroup comparisons. For data with homogeneous variance, LSD test was used; for data with heterogeneous variance, Dunnett-t test was used. A value of P < 0.05 was considered statistically significant.

[3] = system: inflammatory bowel disease model rats; test: Inflammatory bowel disease experiment (TNBS model): macroscopic injury score of the colon; type: in vivo; settings: for inflammatory response on the intestinal surface / intestinal symptoms: compared with the model group
Procedure, shortened: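 Colitis in rats was induced by intrarectal TNBS 50 mg/kg (20 mg/mL in 50% ethanol) after 24 h fasting. Dosing began 1 h before induction, then daily for 5 days. On day 5 colon was scored macroscopically for adhesion, obstruction, wall thickening, congestion and necrosis, with ANOVA/Dunnett or Kruskal-Wallis/Mann-Whitney statistics.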

[4] = system: dry eye syndrome model New Zealand rabbits; test: Dry eye syndrome experiment (benzalkonium chloride model): corneal fluorescein sodium staining; type: in vivo, male New Zealand White rabbits; settings: for inflammatory response on the ocular surface / ocular symptoms: compared with the model group
[5] = system: dry eye syndrome model New Zealand rabbits; test: Dry eye syndrome experiment (benzalkonium chloride model): tear secretion test with phenol red cotton threads; type: in vivo, male New Zealand White rabbits; settings: for tear secretion: compared with the model group
[6] = system: intraocular pressure of guinea pigs; test: Adverse reactions of continuous ocular administration: intraocular pressure; type: in vivo
Procedure, shortened: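 Guinea pigs (300-350 g, both sexes) dosed bilaterally with 5 mg/5 mL ophthalmic suspensions, saline as blank; intraocular pressure measured before dosing and on days 7, 14, 21 and 28.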

[7] = D3, 1 mg/mL, 50 µL/eye, 3 times a day for 14 days
[8] = D7, 1 mg/mL, 50 µL/eye, 3 times a day for 14 days
[9] = D15, 1 mg/mL, 50 µL/eye, 3 times a day for 14 days

Structure (SMILES) | stability in animal lung tissue homogenate, skin tissue homogenate, and aqueous humor [1] | inflammatory cytokines in aqueous humor [2] | Macroscopic injury score ([3]; colon, day 5 after TNBS, 2 mg/kg once a day (compounds intraintestinally, dexamethasone by gavage)) | inflammatory response on the intestinal surface / intestinal symptoms [3] | inflammatory response on the ocular surface / ocular symptoms [4] | tear secretion [5] | intraocular pressure after continuous ocular administration [6] | Corneal fluorescein sodium staining score D3 [4, 7] | Corneal fluorescein sodium staining score D7 [4, 8] | Corneal fluorescein sodium staining score D15 [4, 9] | Wetting length of phenol red cotton threads (mm) D0 ([5]; D0, 1 mg/mL, 50 µL/eye, 3 times a day for 14 days) [mm] | Wetting length of phenol red cotton threads (mm) D3 [5, 7] [mm] | Wetting length of phenol red cotton threads (mm) D7 [5, 8] [mm] | Wetting length of phenol red cotton threads (mm) D15 [5, 9] [mm]
C[C@]12C=CC(=O)C=C1[C@@H](F)C[C@H]1[C@@H]3C[C@H]4OC(c5ccc(CSC6CCOC6=O)cc5)O[C@@]4(C(=O)SCF)[C@@]3(C)C[C@H](O)[C@@]12F (stereo partly drawn) [Compound 34, S-(Fluoromethyl) (2S,6aS,6bR,7S,8aS,8bS,11aR,12aS,12bS)-2,6b-difluoro-7-hydroxy-6a,8a-dimethyl-4-oxo-10-(4-( ((2-oxotetrahydrofuran-3-yl)thio)methyl)phenyl)-1,2,4,6a,6b,7,8,8a,11a,12,12a,12b-dodecahydro-8bH-naphtho[2',1':4,5]indeno[1,2-d][1,3]dioxole-8b-carbothioate] | relatively stable | suppressed inflammatory cytokines in aqueous humor | 5.00 ± 0.95 | significantly inhibited the inflammatory response on the intestinal surface | significantly alleviated the ocular symptoms in dry eye syndrome model New Zealand rabbits | significantly increased the tear secretion | no abnormal intraocular pressure observed | – | – | – | – | – | – | –
C[C@]12C=CC(=O)C=C1[C@@H](F)C[C@H]1[C@@H]3C[C@H]4OC(c5ccc(CSC6CCOC6=O)cc5)O[C@@]4(C(=O)OCF)[C@@]3(C)C[C@H](O)[C@@]12F (stereo partly drawn) [Compound 36, Fluoromethyl (2S,6aS,6bR,7S,8aS,8bS,11aR,12aS,12bS)-2,6b-difluoro-7-hydroxy-6a,8a-dimethyl-4-oxo-10-(4-( ((2-oxotetrahydrofuran-3-yl)thio)methyl)phenyl)-1,2,4,6a,6b,7,8,8a,11a,12,12a,12b-dodecahydro-8bH-naphtho[2',1':4,5]indeno[1,2-d][1,3]dioxole-8b-carboxylate] | relatively stable | suppressed inflammatory cytokines in aqueous humor | – | significantly alleviated the intestinal symptoms in inflammatory bowel disease model rats | significantly alleviated the ocular symptoms in dry eye syndrome model New Zealand rabbits | significantly increased the tear secretion | no abnormal intraocular pressure observed | – | – | – | – | – | – | –
C[C@]12C=CC(=O)C=C1CC[C@H]1[C@@H]3C[C@H]4OC(c5ccc(CSC6CCOC6=O)nc5)O[C@@]4(C(=O)CO)[C@@]3(C)C[C@H](O)[C@@]12F (stereo partly drawn) [Compound 47, (6aS,6bR,7S,8aS,8bS,11aR,12aS,12bS)-6b-Fluoro-7-hydroxy-8b-(2-hydroxyacetyl)-6a,8a-dimethyl-10-(6-(((2-oxotetrahydrofuran-3-yl)thio)methyl)pyridin-3-yl)-1,2,6a,6b,7,8,8a,8b,11a,12,12a,12 b-dodecahydro-4H-naphtho[2',1':4,5]indeno[1,2-d][1,3]dioxol-4-one] | relatively stable | suppressed inflammatory cytokines in aqueous humor | – | significantly alleviated the intestinal symptoms in inflammatory bowel disease model rats | significantly alleviated the ocular symptoms in dry eye syndrome model New Zealand rabbits | significantly increased the tear secretion | no abnormal intraocular pressure observed | – | – | – | – | – | – | –
C[C@]12C=CC(=O)C=C1CC[C@H]1[C@@H]3C[C@H]4OC(c5ccc(CSC6CCOC6=O)cn5)O[C@@]4(C(=O)CO)[C@@]3(C)C[C@H](O)[C@@]12Cl (stereo partly drawn) [Compound 51, (6aS,6bR,7S,8aS,8bS,11aR,12aS,12bS)-6b-Chloro-7-hydroxy-8b-(2-hydroxyacetyl)-6a,8a-dimethyl-10-(5-(((2-oxotetrahydrofuran-3-yl)thio)methyl)pyridin-2-yl)-1,2,6a,6b,7,8,8a,8b,11a,12,12a,12 b-dodecahydro-4H-naphtho[2',1':4,5]indeno[1,2-d][1,3]dioxol-4-one] | relatively stable | suppressed inflammatory cytokines in aqueous humor | – | significantly alleviated the intestinal symptoms in inflammatory bowel disease model rats | significantly alleviated the ocular symptoms in dry eye syndrome model New Zealand rabbits | significantly increased the tear secretion | no abnormal intraocular pressure observed | – | – | – | – | – | – | –
C[C@]12C=CC(=O)C=C1CC[C@H]1[C@@H]3C[C@H]4OC(c5ccc(CSC6COC(=O)C6)cc5Cl)O[C@@]4(C(=O)CO)[C@@]3(C)C[C@H](O)[C@@]12F (stereo partly drawn) [Compound 20, (6aS,6bR,7S,8aS,8bS,11aR,12aS,12bS)-10-(2-Chloro-4-(((5-oxotetrahydrofuran-3-yl)thio)methyl)phenyl)-6b-fluoro-7-hydroxy-8b-(2-hydroxyacetyl)-6a,8a-dimethyl-1,2,6a,6b,7,8,8a,8b,11a,12,12a, 12b-dodecahydro-4H-naphtho[2',1':4,5]indeno[1,2-d][1,3]dioxol-4-one] | relatively stable | suppressed inflammatory cytokines in aqueous humor | – | significantly alleviated the intestinal symptoms in inflammatory bowel disease model rats | significantly inhibited the inflammatory response on the ocular surface on day 15 | significantly increased the tear secretion on day 15 | no abnormal intraocular pressure observed | 2.33 ± 0.82 | 1.5 ± 0.55 | 1.1 ± 0.52 | 27.76 ± 6.04 | 23.39 ± 3.93 | 29.78 ± 2.74 | 35.28 ± 3.21
C[C@]12C=CC(=O)C=C1CC[C@H]1[C@@H]3C[C@H]4OC(c5ccc(COC6CCOC6=O)cc5)O[C@@]4(C(=O)CO)[C@@]3(C)C[C@H](O)[C@@]12F (stereo partly drawn) [Compound 16, (6aS,6bR,7S,8aS,8bS,11aR,12aS,12bS)-6b-Fluoro-7-hydroxy-8b-(2-hydroxyacetyl)-6a,8a-dimethyl-10-(4-(((2-oxotetrahydrofuran-3-yl)oxy)methyl)phenyl)-1,2,6a,6b,7,8,8a,8b,11a,12,12a,12b-do decahydro-4H-naphtho[2',1':4,5]indeno[1,2-d][1,3]dioxol-4-one] | relatively stable | suppressed inflammatory cytokines in aqueous humor | – | significantly alleviated the intestinal symptoms in inflammatory bowel disease model rats | significantly alleviated the ocular symptoms in dry eye syndrome model New Zealand rabbits | significantly increased the tear secretion | no abnormal intraocular pressure observed | – | – | – | – | – | – | –

From patent EP4635969A1, “NOVEL GLUCOCORTICOID, METHOD FOR PREPARING SAME, AND USE THEREOF” (Tianjin Pharmaceutical Biotechnology Co., Ltd., priority 2022, dated 2024)
